# Source: patent publication US12187773B2, “Modified GIP peptide analogues” (Antag Therapeutics ApS, priority 2018, dated 2025)
# Where a SMILES comes first, the peptide text is derived from it. The star is where a group is joined. C16 diacid = O=C(O)CCCCCCCCCCCCCCC(=O)*
# Columns and labels:
# Format in all cases: cell-based
# human GIP receptor [1] = biological target: T1, human GIP receptor (Homo sapiens, UniProt P48546); test: cAMP accumulation, agonism (DiscoveRx HitHunter cAMP XS assay); set-up: host or cells: COS-7 (transient, calcium phosphate; pCMV-Script vector)
# T1 sequence (P48546 22-466): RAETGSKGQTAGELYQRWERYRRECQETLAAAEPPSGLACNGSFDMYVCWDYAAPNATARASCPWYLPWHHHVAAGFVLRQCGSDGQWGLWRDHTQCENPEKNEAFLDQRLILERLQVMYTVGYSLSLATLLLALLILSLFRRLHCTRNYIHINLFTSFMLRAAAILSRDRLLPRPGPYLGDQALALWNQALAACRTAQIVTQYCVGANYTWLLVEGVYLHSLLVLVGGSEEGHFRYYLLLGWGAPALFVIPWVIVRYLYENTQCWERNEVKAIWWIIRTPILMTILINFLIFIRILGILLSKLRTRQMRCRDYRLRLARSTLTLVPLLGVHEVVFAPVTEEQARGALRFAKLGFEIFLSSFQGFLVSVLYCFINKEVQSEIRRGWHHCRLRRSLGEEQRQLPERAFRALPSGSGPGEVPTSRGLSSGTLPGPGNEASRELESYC
# Method: Transient transfected COS-7 cells expressing the human GIP receptor were seeded in white 96-well plates with a density of 3.5*10^4/well. The day after, the cells were washed twice with Hepes buffered saline (HBS) buffer and incubated with HBS and 1 mM 3-isobutyl-1-methylxanthine (IBMX) for 30 min at 37° C. To test for agonistic properties, ligands were added and incubated for 30 min at 37° C. In order to test for antagonistic properties, the cells were preincubated with the antagonists for 10 min prior to the addition of the agonist and subsequent incubated for 20 additional min. The HitHunter™ cAMP XS assay (DiscoveRx) was carried out according to the manufacturer's instructions.
# In order to develop a GIP receptor antagonist with improved antagonistic properties, individual amino acid substitutions were conducted on GIP(3-30)NH2 and in particular at positions: 16, 18, 30 or 3, 16, 18, 30. The obtained peptides were lipidated at position 18 directly or via a linker. Both the agonistic and antagonistic profiles of the compounds were tested in cAMP accumulation experiments done in transiently transfected COS-7 cells expressing the human GIP receptor. To investigate if these mutated analogues still retained their antagonistic properties, their ability to inhibit a GIP-mediated cAMP response corresponding to 50-80% of maximum activation was examined.
# human GIP receptor [2] = biological target: T1, human GIP receptor; test: cAMP antagonism (CisBio cAMP Dynamic 2 HTRF assay); set-up: pCMV-Script vector; conditions: Table 1C, CisBio, HEK-293 cells
# Method: The in vitro functional activity of compounds towards human GIP receptor can also be determined in HEK-293 cells transiently expressing the receptor. On the day of the assay, cells were resuspended in HBSS buffer (Gibco, 14025-50) supplemented with 20 mM HEPES (Gibco, 15630-106), 0,1% Pluronic F-68 (Gibco, 24040-032) and 0,1% casein (Sigma, C4765), and plated in 384-well plates at a density of 5000 cells/well. The GIP peptide analogues of the present disclosure were diluted in HBSS buffer supplemented with 20 mM HEPES, 0,1% pluronic, 0,1% casein and 500 uM IBMX. […] The resulting decrease in intracellular cAMP was quantitatively determined using the CisBio cAMP Dynamic 2 HTRF Assay Kit. The assay is based on a competition between native cAMP produced by cells and cAMP labeled with the dye d2 for binding to a cryptate labeled antibody. The specific signal (i.e. energy transfer signal) is inversely proportional to the concentration of cAMP in the sample.
# The cAMP-d2 conjugate and the antibody anti-cAMP-Cryptate, both diluted in lysis buffer provided in the kit, were added to the cells according to the manufacturer's protocol. The resulting competitive assay was incubated for 60 minutes at room temperature, and the signal was detected by using a PerkinElmer Envision® instrument with excitation at 320 nm and emission at 665 nm and 620 nm. The HTRF ratio (emission at 665 nm/620 nm*10,000) is inversely proportional to the amount of cAMP present and is converted to nM cAMP per well using a cAMP standard curve. The dose-response curves were fitted using the non-linear regression analysis (four-logistic parameter equation) in GraphPad Prism, whereby pIC50 values were estimated.
# human GIP receptor [3] = biological target: T1, human GIP receptor; test: cAMP agonism (CisBio cAMP Dynamic 2 HTRF assay)
# Method: To test for agonistic properties at the GIP receptor, compounds were diluted and added to cells as described above and incubated for 30 min at 37° C. The resulting increase in intracellular cAMP was determined using the CisBio cAMP Dynamic 2 HTRF Assay Kit as described above.
# [4] = COS-7, read-out: cAMP agonism, Emax
# [5] = HEK293, read-out: cAMP agonism, % Efficacy, Table 1C, HEK-293 cells
# [6] = Table 1B, DiscoveRx, COS-7 cells, read-out: cAMP agonism, Emax
# [7] = HEK293, Table 1C, HEK-293 cells, read-out: cAMP agonism, % Efficacy
SMILES,Emax (human GIP receptor [1]; [4]),Emax (human GIP receptor [3]; [5]),Emax (human GIP receptor [1]; [6]),Emax (human GIP receptor [3]; [7]),also measured
"CC[C@H](C)[C@H](NC(=O)[C@H](CO)NC(=O)[C@H](Cc1ccc(O)cc1)NC(=O)[C@H](CC(=O)O)NC(=O)[C@H](CO)NC(=O)[C@@H](NC(=O)[C@H](Cc1ccccc1)NC(=O)[C@@H](N)[C@@H](C)O)[C@@H](C)CC)C(=O)N[C@@H](C)C(=O)N[C@@H](CC(C)C)C(=O)N[C@@H](CC(=O)O)C(=O)N[C@@H](CCCNC(=N)N)C(=O)N[C@H](C(=O)N[C@@H](CCCCNC(=O)CC[C@H](NC(=O)CCCCCCCCCCCCCCC(=O)O)C(=O)O)C(=O)N[C@@H](CCC(N)=O)C(=O)N[C@@H](CCC(N)=O)C(=O)N[C@@H](CC(=O)O)C(=O)N[C@@H](Cc1ccccc1)C(=O)N[C@H](C(=O)N[C@@H](CC(N)=O)C(=O)N[C@@H](Cc1c[nH]c2ccccc12)C(=O)N[C@@H](CC(C)C)C(=O)N[C@@H](CC(C)C)C(=O)N[C@@H](C)C(=O)N[C@@H](CCC(N)=O)C(=O)N[C@@H](CCCNC(=N)N)C(N)=O)C(C)C)[C@@H](C)CC [AT233] (HELM PEPTIDE1{T.F.I.S.D.Y.S.I.A.L.D.R.I.K.Q.Q.D.F.V.N.W.L.L.A.Q.R.[am]}|PEPTIDE2{[O=C(O)CCCCCCCCCCCCCCC(=O)[*:2]].[gGlu]}$PEPTIDE1,PEPTIDE2,14:R3-2:R2$$$V2.0; N-terminus assumed)",28%,0%,–,–,"cAMP antagonism, % inhib (human GIP receptor [2]): 70%; IC50 (human GIP receptor [2]; cAMP antagonism, nM (IC50), agonist GIP1-42 at EC50): 34.2 nM"
"CC[C@H](C)[C@H](NC(=O)[C@H](CO)NC(=O)[C@H](Cc1ccc(O)cc1)NC(=O)[C@H](CC(=O)O)NC(=O)[C@H](CO)NC(=O)[C@@H](NC(=O)[C@H](Cc1ccccc1)NC(=O)[C@@H](NC(=O)CNC(=O)[C@@H]1CCCN1)[C@@H](C)O)[C@@H](C)CC)C(=O)N[C@@H](C)C(=O)N[C@@H](CCSC)C(=O)N[C@@H](CC(=O)O)C(=O)N[C@@H](CCCNC(=N)N)C(=O)N[C@H](C(=O)N[C@@H](CCCCNC(=O)COCCOCCNC(=O)CC[C@H](NC(=O)CCCCCCCCCCCCCCC(=O)O)C(=O)O)C(=O)N[C@@H](CCC(N)=O)C(=O)N[C@@H](CCC(N)=O)C(=O)N[C@@H](CC(=O)O)C(=O)N[C@@H](Cc1ccccc1)C(=O)N[C@H](C(=O)N[C@@H](CC(N)=O)C(=O)N[C@@H](Cc1c[nH]c2ccccc12)C(=O)N[C@@H](CC(C)C)C(=O)N[C@@H](CC(C)C)C(=O)N[C@@H](C)C(=O)N[C@@H](CCC(N)=O)C(=O)N[C@@H](CCCNC(=N)N)C(=O)O)C(C)C)[C@@H](C)CC [AT273] (HELM PEPTIDE1{P.G.T.F.I.S.D.Y.S.I.A.M.D.R.I.K.Q.Q.D.F.V.N.W.L.L.A.Q.R}|PEPTIDE2{[O=C(O)CCCCCCCCCCCCCCC(=O)[*:2]].[gGlu].[O=C(COCCOCCN[*:1])[*:2]]}$PEPTIDE1,PEPTIDE2,16:R3-3:R2$$$V2.0; N-terminus assumed)",35%,0%,–,–,–
CC[C@H](C)[C@H](NC(=O)[C@H](CO)NC(=O)[C@H](Cc1ccc(O)cc1)NC(=O)[C@H](CC(=O)O)NC(=O)[C@H](CO)NC(=O)[C@@H](NC(=O)[C@H](Cc1ccccc1)NC(=O)[C@@H](NC(=O)CNC(=O)[C@@H](N)CCC(=O)O)[C@@H](C)O)[C@@H](C)CC)C(=O)N[C@@H](C)C(=O)N[C@@H](CCSC)C(=O)N[C@@H](CC(=O)O)C(=O)N[C@@H](CCCCN)C(=O)N[C@H](C(=O)N[C@@H](CCCCNC(=O)CCCCCCCCCCCCCCC(=O)O)C(=O)N[C@@H](CCC(N)=O)C(=O)N[C@@H](CCC(N)=O)C(=O)N[C@@H](CC(=O)O)C(=O)N[C@@H](Cc1ccccc1)C(=O)N[C@H](C(=O)N[C@@H](CC(N)=O)C(=O)N[C@@H](Cc1c[nH]c2ccccc12)C(=O)N[C@@H](CC(C)C)C(=O)N[C@@H](CC(C)C)C(=O)N[C@@H](C)C(=O)N[C@@H](CCC(N)=O)C(=O)N[C@@H](CCC(=O)O)C(N)=O)C(C)C)[C@@H](C)CC [AT477] (H-EGTFISDYSIAMDKIK(C16 diacid)QQDFVNWLLAQE-NH2; N-terminus assumed),–,0%,–,–,"cAMP agonism, Emax (human GIP receptor [1]; Table 1B, DiscoveRx, COS-7 cells): No Agonism"
CC[C@H](C)[C@H](NC(=O)[C@H](CO)NC(=O)[C@H](Cc1ccc(O)cc1)NC(=O)[C@H](CCC(=O)O)NC(=O)[C@H](CO)NC(=O)[C@@H](NC(=O)[C@H](Cc1ccccc1)NC(=O)[C@@H](NC(=O)CNC(=O)[C@@H](N)CCC(=O)O)[C@@H](C)O)[C@@H](C)CC)C(=O)N[C@@H](C)C(=O)N[C@@H](CCSC)C(=O)N[C@@H](CCC(=O)O)C(=O)N[C@@H](CCCCN)C(=O)N[C@H](C(=O)N[C@@H](CCCCNC(=O)CCCCCCCCCCCCCCC(=O)O)C(=O)N[C@@H](CCC(N)=O)C(=O)N[C@@H](CCC(N)=O)C(=O)N[C@@H](CCC(=O)O)C(=O)N[C@@H](Cc1ccccc1)C(=O)N[C@H](C(=O)N[C@@H](CCC(N)=O)C(=O)N[C@@H](Cc1c[nH]c2ccccc12)C(=O)N[C@@H](CC(C)C)C(=O)N[C@@H](CC(C)C)C(=O)N[C@@H](C)C(=O)N[C@@H](CCC(N)=O)C(=O)N[C@@H](CCCCN)C(N)=O)C(C)C)[C@@H](C)CC [AT482] (H-EGTFISEYSIAMEKIK(C16 diacid)QQEFVQWLLAQK-NH2; N-terminus assumed),–,–,10%,0%,–
CC[C@H](C)[C@H](NC(=O)[C@H](Cc1ccccc1)NC(=O)[C@H](C)NC(=O)CNC(=O)[C@@H](N)CCC(=O)O)C(=O)N[C@@H](CO)C(=O)N[C@@H](CC(=O)O)C(=O)N[C@@H](Cc1ccc(O)cc1)C(=O)N[C@@H](C)C(=O)N[C@@H](C)C(=O)N[C@@H](C)C(=O)N[C@@H](CCSC)C(=O)N[C@@H](CC(=O)O)C(=O)N[C@@H](CCCCN)C(=O)N[C@H](C(=O)N[C@@H](CCCCNC(=O)CCCCCCCCCCCCCCC(=O)O)C(=O)N[C@@H](CCC(N)=O)C(=O)N[C@@H](CCC(N)=O)C(=O)N[C@@H](CC(=O)O)C(=O)N[C@@H](Cc1ccccc1)C(=O)N[C@H](C(=O)N[C@@H](C)C(=O)N[C@@H](Cc1c[nH]c2ccccc12)C(=O)N[C@@H](CC(C)C)C(=O)N[C@@H](CC(C)C)C(=O)N[C@@H](C)C(=O)N[C@@H](CCC(N)=O)C(=O)N[C@@H](CCCCN)C(N)=O)C(C)C)[C@@H](C)CC [AT483] (H-EGAFISDYAAAMDKIK(C16 diacid)QQDFVAWLLAQK-NH2; N-terminus assumed),–,–,8%,0%,–
